For orientation: IC50 means the concentration needed to halve the response being measured. What is called DC50 is the midpoint of the concentration-degradation curve.

One data set relates to IL-6 secretion. Put plainly: Inhibition of induced IL-6 secretion in human PBMCs (CBA). The data set is classed as cell-based. As to conditions: PBMC. As to the method:
(§1) The effect of PROTAC small molecules on inflammatory factors in PBMCs downstream of IRAK4 induced by TLR and IL-1 was detected based on the CBA (cytometric bead array) method.
(§2) Step 2: The density of PBMCs was adjusted to 1 E6/mL, and 150 µL of PBMCs in 1640 complete medium were seeded into a 96-well plate, followed by incubation at 37°C for 1 hour.
(§3) Step 3: 50 µL of serially diluted small molecule (working concentration: 10000 nM, 1:3 dilution) drugs were inoculated into the plate in a 37°C incubator for 8 hours.
(§4) Step 4: 10 µL of stimulants were added respectively, with final concentrations of 100 ng/mL for LPS, 1 µg/mL for R848, and 100 ng/mL for IL-1β.
(§5) Step 5: CBA assay. The concentrations of IL-6 and TNF-α in the cell culture supernatant were determined using Hu IL-6 CBA Flex Set A7 and Hu TNF- CBA Flex Set D9.
(§6) Step 6: Standard samples were prepared: 2500 pg/mL, 1250 pg/mL,...0. A 1:2 serial dilution was performed to obtain 10 concentrations.
(§7) Step 7: The mixed capture beads were resuspended in capture bead diluent (1:50), and cell culture supernatant (50 µL) was added, followed by incubation at room temperature for 10 minutes.
(§8) Step 8: The detection reagent prepared with detection diluent was added, and the mixture was incubated in the dark at room temperature for 3 hours. At the end of incubation, the samples were washed once with wash buffer and resuspended for detection.
(§9) The concentrations of IL-6 and TNFα were calculated using the standard curve method. Data presentation and IC50 calculation were performed using Prism 8.0.2.

The next data set concerns the target hERG potassium channel (Homo sapiens, UniProt Q12809). Put plainly: Inhibition of hERG potassium channel, whole-cell manual patch clamp in CHO-hERG cells. The following applies: @ 1 µM test compound.
The target of data set [1] is T1, IRAK4 (Homo sapiens, UniProt Q9NWZ3).
T1 sequence (Q9NWZ3 1-460): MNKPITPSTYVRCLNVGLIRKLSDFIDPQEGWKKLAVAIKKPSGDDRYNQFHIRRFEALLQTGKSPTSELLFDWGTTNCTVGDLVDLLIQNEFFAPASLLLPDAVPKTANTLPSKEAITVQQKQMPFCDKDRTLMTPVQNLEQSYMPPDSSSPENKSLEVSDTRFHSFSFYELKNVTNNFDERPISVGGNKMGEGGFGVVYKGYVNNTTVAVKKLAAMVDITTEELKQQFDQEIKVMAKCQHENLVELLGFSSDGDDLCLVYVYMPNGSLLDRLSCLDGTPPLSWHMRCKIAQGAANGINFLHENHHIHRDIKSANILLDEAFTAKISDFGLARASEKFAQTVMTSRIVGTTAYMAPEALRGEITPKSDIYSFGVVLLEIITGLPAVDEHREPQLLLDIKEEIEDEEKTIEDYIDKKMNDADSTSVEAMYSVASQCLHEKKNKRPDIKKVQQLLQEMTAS
Briefly: Degradation of IRAK4 in SU-DHL-2 cells (flow cytometry). Format: cell-based. Details: The degradation level of IRAK4 protein in SU-DHL-2 cell line by the compounds was detected by flow cytometry; endogenous in cells; host or cells: SU-DHL-2; OCI-LY3. The following applies: SU-DHL-2 cells, 24 hours incubation; read-out: SU-DHL-2 DC50.

A further data set concerns TNFα secretion. Briefly: Inhibition of induced TNFα secretion in human PBMCs (CBA). Format: cell-based. The following applies: PBMC. As to the method:
as §1, §2, §3, §4, §5, §6, §7, §8, §9

Data set [2] has as its target T1, IRAK4. Put plainly: Degradation of IRAK4 in monocytes of human PBMCs (flow cytometry). Format: cell-based. Also on record: endogenous in cells. The following applies: human PBMC monocytes, 24 hours incubation. On the procedure: The degradation level of IRAK4 in monocytes of human peripheral blood mononuclear cells (hPBMCs) was detected by flow cytometry.
On day 1, the cells were seeded at a density of 2 × 10^5 cells per well in 100 µL in a 96-well plate.
The compounds were dissolved in DMSO to a final concentration of 10 mM, and then diluted with culture medium at a 1:5 concentration gradient to prepare 10 concentrations. The diluted solutions were added to the cells to obtain a maximum final concentration of 2 µM. Wells containing cells treated with 0.1% DMSO served as the positive control
The cells were incubated at 37°C in a 5% CO2 incubator for 24 hours.
The cells were stained for viability discrimination using the LIVE/DEAD™ Fixable Blue Dead Cell Stain Kit, and surface staining of monocytes was performed with PE Mouse Anti-Human CD14, followed by incubation at 4°C for 30 minutes.
Fix buffer I, equal in volume to the cultured cells, was added, and the cells were fixed at 37°C for 10 minutes.
150 µL of Perm III reagent was added, and the cells were incubated at 4°C for 30 minutes to permeabilize the membranes.
Flow cytometry analysis was performed using a flow cytometer.
The flow cytometry data were analyzed using Flowjo software. Data presentation and DC50 calculation were performed using Prism 8.0.2 (GraphPad).

Setting [3] is: IL-1β 100 ng/mL, read-out: IC50 of compounds against induced secretion, IL-6, IL-1β.
[4] abbreviates: LPS 100 ng/mL, read-out: IC50 of compounds against induced secretion, IL-6, LPS.
[5] abbreviates: R848 1 µg/mL, read-out: IC50 of compounds against induced secretion, IL-6, R848.
Setting [6] is: IL-1β 100 ng/mL, read-out: IC50, TNFα secretion induced by IL-1β.
[7] abbreviates: LPS 100 ng/mL, read-out: IC50, TNFα secretion induced by LPS.
Where [8] appears, read: R848 1 µg/mL, read-out: IC50, TNFα secretion induced by R848.

Read-outs that look alike come from different tables or passages of the source.

Chain of hERG potassium channel (Q12809 whole entry): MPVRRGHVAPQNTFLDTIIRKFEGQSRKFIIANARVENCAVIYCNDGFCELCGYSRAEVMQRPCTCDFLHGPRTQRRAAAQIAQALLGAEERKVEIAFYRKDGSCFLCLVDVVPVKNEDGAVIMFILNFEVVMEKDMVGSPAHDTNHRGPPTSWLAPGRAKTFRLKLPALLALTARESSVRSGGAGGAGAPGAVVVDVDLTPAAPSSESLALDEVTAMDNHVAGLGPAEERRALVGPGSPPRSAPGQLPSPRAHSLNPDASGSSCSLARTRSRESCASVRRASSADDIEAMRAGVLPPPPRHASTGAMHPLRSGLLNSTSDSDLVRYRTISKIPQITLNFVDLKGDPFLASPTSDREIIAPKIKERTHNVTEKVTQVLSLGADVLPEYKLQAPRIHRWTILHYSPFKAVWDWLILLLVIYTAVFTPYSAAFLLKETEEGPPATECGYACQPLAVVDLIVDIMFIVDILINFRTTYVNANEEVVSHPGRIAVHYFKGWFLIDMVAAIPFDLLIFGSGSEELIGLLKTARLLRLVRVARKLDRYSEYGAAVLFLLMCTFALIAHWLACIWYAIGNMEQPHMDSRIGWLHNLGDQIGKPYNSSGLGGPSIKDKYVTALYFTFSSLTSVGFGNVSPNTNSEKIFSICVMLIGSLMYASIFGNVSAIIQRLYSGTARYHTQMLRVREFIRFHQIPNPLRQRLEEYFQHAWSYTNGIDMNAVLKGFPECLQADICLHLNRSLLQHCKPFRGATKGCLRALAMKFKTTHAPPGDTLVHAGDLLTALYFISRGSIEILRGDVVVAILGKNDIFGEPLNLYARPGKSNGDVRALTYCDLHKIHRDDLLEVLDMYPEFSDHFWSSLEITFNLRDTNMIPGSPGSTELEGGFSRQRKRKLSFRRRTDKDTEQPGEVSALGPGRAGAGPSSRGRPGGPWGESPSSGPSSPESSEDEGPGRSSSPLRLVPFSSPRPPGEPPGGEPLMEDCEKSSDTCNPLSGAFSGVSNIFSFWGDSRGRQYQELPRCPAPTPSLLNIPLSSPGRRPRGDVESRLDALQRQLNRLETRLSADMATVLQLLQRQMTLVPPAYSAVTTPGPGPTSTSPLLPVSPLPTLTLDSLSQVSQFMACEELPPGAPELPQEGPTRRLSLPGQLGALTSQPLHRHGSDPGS
Experimental for hERG potassium channel: The effects of compounds on hERG potassium channel (human Ether-a-go-go Related Gene potassium channel) currents were tested using the whole-cell manual voltage-clamp electrophysiological method.
CHO cells stably expressing hERG were cultured in cell culture dishes with a diameter of 35 mm and incubated at 37°C in a 5% CO2 incubator. The cells were passaged at a ratio of 1:5 every 48 hours. The culture medium was formulated as follows: 90% F12 (Invitrogen), 10% fetal bovine serum (Gibco), 100 g/mL G418 (Invitrogen), and 100 g/mL Hygromycin B (Invitrogen). On the day of the experiment, the cell culture medium was aspirated, and the cells were rinsed once with extracellular solution. […] The digestion solution was aspirated, and the cells were resuspended in extracellular solution and then transferred to experimental dishes for electrophysiological recording for later use.
On the day of testing, the compounds were prepared as 10 mM stock solutions in DMSO, then diluted to 1 mM with DMSO, and further diluted 1000-fold with extracellular solution to obtain the desired final test concentration.
hERG potassium channel currents were recorded at room temperature using the whole-cell patch-clamp technique in CHO cells stably expressing the hERG channel. The glass microelectrode was prepared by pulling the glass electrode blank (BF150-86-10, Sutter) with a puller, and the tip resistance after filling with the internal electrode solution was about 2-5 MΩ. The glass microelectrode was inserted into the amplifier probe and then connected to the patch-clamp amplifier. The clamping voltage and data recording were controlled and recorded by pClamp software via a computer, with a sampling frequency of 10 kHz and a filtering frequency of 2 kHz. After obtaining the whole-cell recording, cells were clamped at -100 mV. The hERG potassium current (IhERG) was evoked by applying a 2 s depolarizing voltage step from -100 mV to +20 mV, followed by repolarization to -50 mV for 1 s before returning to -100 mV. […]
Data were analyzed and processed using pClamp, GraphPad Prism 8 and Excel software. […]

`Cn1c(=O)n(C2CCC(=O)NC2=O)c2cccc(C#CCOC34CCC(CN5CCC6(CC5)CC(n5cc(NC(=O)c7cnn8ccc(N9C[C@H]%10C[C@@H]9CO%10)nc78)c(C(F)F)n5)C6)(CC3)CC4)c21` (stereo partly drawn) [Example 52]: the IC50 with IL-6 secretion (setting [3]) turned out to be 8.9 nM; in the data set with IL-6 secretion (setting [4]), 8.4 nM; with IL-6 secretion (setting [5]), 20.3 nM; in the data set with TNFα secretion (setting [6]), 13.9 nM; with TNFα secretion (setting [7]), 8.5 nM; in the data set on TNFα secretion (setting [8]), 21.5 nM. In addition, the “hERG (inhibition%)” value at hERG potassium channel stood at 16% @ 1 µM. In addition, the DC50 on IRAK4 [1] is 3 nM; at IRAK4 [2], 0.65 nM.

Regarding `Cn1c(=O)n(C2CCC(=O)NC2=O)c2cccc(C#CCCN3CCC4(CC3)CC(n3cc(NC(=O)c5cnn6ccc(N7C[C@H]8C[C@@H]7CO8)nc56)c(C(F)F)n3)C4)c21` (stereo partly drawn) [Example 22], the half-maximal inhibitory concentration (IC50) came out at 1 nM with IL-6 secretion (setting [3]); 0.5 nM with IL-6 secretion (setting [4]); 0.16 nM in the data set on IL-6 secretion (setting [5]); 0.16 nM in the data set on TNFα secretion (setting [6]); 1.2 nM in the data set on TNFα secretion (setting [7]); 1.4 nM in the data set with TNFα secretion (setting [8]). Also, the “hERG (inhibition%)” value at hERG potassium channel worked out at 36% @ 1 µM. Further, the results for the DC50 on IRAK4 [1] and on IRAK4 [2] were 1.4 nM and 0.13 nM, respectively.

The values are drawn from EP4656640A1, “IRAK4 DEGRADER AND USE THEREOF” (Shanghai Qilu Pharmaceutical Research and Development …, priority 2023, dated 2024).
